Tests used:
[1] = compound: CCc1cnn2c(NCc3ccc[n+]([O-])c3)cc(N3CCCC[C@H]3CCO)nc12; test: increase in dead-cell fraction, 72 h; higher = more death;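 note: breast cancer cell lines in 384-well plates, stained with Hoechst plus LIVE/DEAD far red dye and imaged, cells above an LDR intensity threshold counted dead, Hoechst-negative corpses included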
LEE011/Ribociclib = compound: CN(C)C(=O)c1cc2cnc(Nc3ccc(N4CCNCC4)cn3)nc2n1C1CCCC1 [LEE011/Ribociclib]; test: as above
BSJ-03-123 = compound: CC(=O)c1c(C)c2cnc(Nc3ccc(N4CCN(CCOCCOCCOCCNC(=O)COc5cccc6c5C(=O)N(C5CCC(=O)NC5=O)C6=O)CC4)cn3)nc2n(C2CCCC2)c1=O [BSJ-03-123]; test: as above
[2] = compound: CC(=O)c1c(C)c2cnc(Nc3ccc(N4CCNCC4)cn3)nc2n(C2CCCC2)c1=O; test: as above
[3] = compound: CCN1CCN(Cc2ccc(Nc3ncc(F)c(-c4cc(F)c5nc(C)n(C(C)C)c5c4)n3)nc2)CC1; test: as above
Flavopiridol = compound: CN1CC[C@H](c2c(O)cc(O)c3c(=O)cc(-c4ccccc4Cl)oc23)[C@H](O)C1 [Flavopiridol]; test: as above
THZ1 = compound: CN(C)C/C=C/C(=O)Nc1ccc(C(=O)Nc2cccc(Nc3ncc(Cl)c(-c4c[nH]c5ccccc45)n3)c2)cc1 [THZ1]; test: as above
Neratinib/HKI272 = compound: CCOc1cc2ncc(C#N)c(Nc3ccc(OCc4ccccn4)c(Cl)c3)c2cc1NC(=O)/C=C/CN(C)C [Neratinib/HKI272]; test: as above
AZD2014 = compound: CNC(=O)c1cccc(-c2ccc3c(N4CCOC[C@@H]4C)nc(N4CCOC[C@@H]4C)nc3n2)c1 [AZD2014]
BSJ-01-175 = compound: CN(C)C/C=C/C(=O)Nc1ccc(O[C@@H]2CCC[C@@H](Nc3ncc(Cl)c(-c4c[nH]c5ccccc45)n3)C2)cc1 [BSJ-01-175]
Tivantinib/ARQ197 = compound: O=C1NC(=O)[C@@H](c2cn3c4c(cccc24)CCC3)[C@@H]1c1c[nH]c2ccccc12 [Tivantinib/ARQ197]
AZD7762 = compound: NC(=O)Nc1cc(-c2cccc(F)c2)sc1C(=O)N[C@H]1CCCNC1 [AZD7762]
[4] = compound: CCC1=CN=CN=C1N2CCN(CC2)CC3=NC4=C(N3)C=C(C=C4)C(F)(F)F
Vorinostat = compound: O=C(CCCCCCC(=O)Nc1ccccc1)NO [Vorinostat]
[5] = compound: CCN1CCN(Cc2ccc(Nc3ncc(F)c(-c4cc(F)c5nc(C)n(C(C)C)c5c4)n3)nc2)CC1
Ipatasertib/GDC0068 = compound: CC(C)NC[C@@H](C(=O)N1CCN(c2ncnc3c2[C@H](C)C[C@H]3O)CC1)c1ccc(Cl)cc1 [Ipatasertib/GDC0068]
[6] = compound: CC(=O)Nc1cccc(-n2c(=O)n(C3CC3)c(=O)c3c(Nc4ccc(I)cc4F)n(C)c(=O)c(C)c32)c1
[7] = compound: COc1ccc2c(c1)[C@]1(C[C@H]1c1ccc3c(/C=C/c4ccc(CN5C[C@@H](C)O[C@@H](C)C5)cc4)n[nH]c3c1)C(=O)N2
AZD6738 = compound: C[C@@H]1COCCN1c1cc(C2([S@](C)(=N)=O)CC2)nc(-c2cc[nH]c3nccc2-3)n1 [AZD6738]
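Throughout, for GR50, 72 h: breast cancer and non-malignant breast epithelial cell lines, Deep Dye Drop or Dye Drop imaging, nine half-log doses, GR normalized to time-zero plates and DMSO-only controls.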

With MDAMB231 the “increase in dead-cell fraction” value ([1]; 0.0001 µM) was 0.0051, the “increase in dead-cell fraction” value ([1]; 0.0003162 µM) was -0.0006 and the “increase in dead-cell fraction” value ([1]; 0.001 µM) was 0.0055. The “increase in dead-cell fraction” value ([1]; 0.003162 µM) was -0.0028, the “increase in dead-cell fraction” value ([1]; 0.01 µM) was 0.0529 and the “increase in dead-cell fraction” value ([1]; 0.03162 µM) was 0.459. For the same cell line, the “increase in dead-cell fraction” value ([1]; 0.1 µM) was 0.573, the “increase in dead-cell fraction” value ([1]; 0.3162 µM) was 0.582 and the “increase in dead-cell fraction” value ([1]; 1 µM) was 0.618. For the same cell line, the “increase in dead-cell fraction” value (LEE011/Ribociclib; 0.001 µM) was -0.0007, the “increase in dead-cell fraction” value (LEE011/Ribociclib; 0.003162 µM) was -0.0028 and the “increase in dead-cell fraction” value (LEE011/Ribociclib; 0.01 µM) was 0.0009. The “increase in dead-cell fraction” value (LEE011/Ribociclib; 0.03162 µM) was -0.0021, the “increase in dead-cell fraction” value (LEE011/Ribociclib; 0.1 µM) was 0.0045 and the “increase in dead-cell fraction” value (LEE011/Ribociclib; 0.3162 µM) was 0.005. The “increase in dead-cell fraction” value (LEE011/Ribociclib; 1 µM) was 0.0045, the “increase in dead-cell fraction” value (LEE011/Ribociclib; 3.162 µM) was 0.0025 and the “increase in dead-cell fraction” value (LEE011/Ribociclib; 10 µM) was 0.014. The “increase in dead-cell fraction” value (BSJ-03-123; 0.001 µM) was -0.0008, the “increase in dead-cell fraction” value (BSJ-03-123; 0.003162 µM) was -0.0016 and the “increase in dead-cell fraction” value (BSJ-03-123; 0.01 µM) was 0.0034. For the same cell line, the “increase in dead-cell fraction” value (BSJ-03-123; 0.03162 µM) was 0.0017, the “increase in dead-cell fraction” value (BSJ-03-123; 0.1 µM) was 0.0035 and the “increase in dead-cell fraction” value (BSJ-03-123; 0.3162 µM) was 0.0024. The “increase in dead-cell fraction” value (BSJ-03-123; 1 µM) was 0.0009, the “increase in dead-cell fraction” value (BSJ-03-123; 3.162 µM) was 0.0031 and the “increase in dead-cell fraction” value (BSJ-03-123; 10 µM) was 0.157. For the same cell line, the “increase in dead-cell fraction” value ([2]; 0.0003162 µM) was -0.0007, the “increase in dead-cell fraction” value ([2]; 0.001 µM) was 0.0057 and the “increase in dead-cell fraction” value ([2]; 0.003162 µM) was -0.0035. The “increase in dead-cell fraction” value ([2]; 0.01 µM) was -0.0069, the “increase in dead-cell fraction” value ([2]; 0.03162 µM) was -0.0054 and the “increase in dead-cell fraction” value ([2]; 0.1 µM) was 0.0066. The “increase in dead-cell fraction” value ([2]; 0.3162 µM) was 0.0151, the “increase in dead-cell fraction” value ([2]; 1 µM) was 0.0334 and the “increase in dead-cell fraction” value ([2]; 3.162 µM) was 0.0399. The “increase in dead-cell fraction” value ([3]; 0.001 µM) was 0.0075, the “increase in dead-cell fraction” value ([3]; 0.003162 µM) was 0.0028 and the “increase in dead-cell fraction” value ([3]; 0.01 µM) was 0.0023. The “increase in dead-cell fraction” value ([3]; 0.03162 µM) was 0.0037, the “increase in dead-cell fraction” value ([3]; 0.1 µM) was 0.0398 and the “increase in dead-cell fraction” value ([3]; 0.3162 µM) was 0.0474. For the same cell line, the “increase in dead-cell fraction” value ([3]; 1 µM) was 0.12, the “increase in dead-cell fraction” value ([3]; 3.162 µM) was 0.366 and the “increase in dead-cell fraction” value ([3]; 10 µM) was 0.68. For the same cell line, the “increase in dead-cell fraction” value (Flavopiridol; 0.0001 µM) was -0.0026, the “increase in dead-cell fraction” value (Flavopiridol; 0.0003162 µM) was -0.0012 and the “increase in dead-cell fraction” value (Flavopiridol; 0.001 µM) was 0.002. The “increase in dead-cell fraction” value (Flavopiridol; 0.003162 µM) was 0.0006, the “increase in dead-cell fraction” value (Flavopiridol; 0.01 µM) was -0.0004 and the “increase in dead-cell fraction” value (Flavopiridol; 0.03162 µM) was -0.0008. For the same cell line, the “increase in dead-cell fraction” value (Flavopiridol; 0.1 µM) was 0.0005, the “increase in dead-cell fraction” value (Flavopiridol; 0.3162 µM) was 0.0405 and the “increase in dead-cell fraction” value (Flavopiridol; 1 µM) was 0.485. For the same cell line, the “increase in dead-cell fraction” value (THZ1; 0.0001 µM) was -0.0006, the “increase in dead-cell fraction” value (THZ1; 0.0003162 µM) was 0.0015 and the “increase in dead-cell fraction” value (THZ1; 0.001 µM) was 0.0027. For the same cell line, the “increase in dead-cell fraction” value (THZ1; 0.003162 µM) was 0.0007, the “increase in dead-cell fraction” value (THZ1; 0.01 µM) was -0.0012 and the “increase in dead-cell fraction” value (THZ1; 0.03162 µM) was 0.0033. The “increase in dead-cell fraction” value (THZ1; 0.1 µM) was 0.0231, the “increase in dead-cell fraction” value (THZ1; 0.3162 µM) was 0.0712 and the “increase in dead-cell fraction” value (THZ1; 1 µM) was 0.363. The “increase in dead-cell fraction” value (Neratinib/HKI272; 0.0003162 µM) was 0.0013, the “increase in dead-cell fraction” value (Neratinib/HKI272; 0.001 µM) was -0.0029 and the “increase in dead-cell fraction” value (Neratinib/HKI272; 0.003162 µM) was 0.0044. For the same cell line, the “increase in dead-cell fraction” value (Neratinib/HKI272; 0.01 µM) was 0.0008, the “increase in dead-cell fraction” value (Neratinib/HKI272; 0.03162 µM) was 0.0108 and the “increase in dead-cell fraction” value (Neratinib/HKI272; 0.1 µM) was 0.0067. For the same cell line, the “increase in dead-cell fraction” value (Neratinib/HKI272; 0.3162 µM) was 0.0175, the “increase in dead-cell fraction” value (Neratinib/HKI272; 1 µM) was 0.0509 and the “increase in dead-cell fraction” value (Neratinib/HKI272; 3.162 µM) was 0.378. The “GR50, 72 h” value (AZD2014) was 0.583 µM, the “GR50, 72 h” value (BSJ-01-175) was 0.0118 µM and the “GR50, 72 h” value (Tivantinib/ARQ197) was 0.416 µM. The “GR50, 72 h” value (AZD7762) was 0.163 µM, the “GR50, 72 h” value [4] was > 10 µM and the “GR50, 72 h” value (Vorinostat) was 1.24 µM. The “GR50, 72 h” value [5] was 0.0468 µM, the “GR50, 72 h” value (Ipatasertib/GDC0068) was > 10 µM and the “GR50, 72 h” value [6] was 0.00263 µM. The “GR50, 72 h” value [7] was 0.00366 µM and the “GR50, 72 h” value (AZD6738) was 8.89 µM.
